Laboratory results reported in US11237158B2, “Time-resolved fluorescent immunochromatographic test strip for detecting paclitaxel drugs as well as preparation method and application thereof” (BEIJING DIAGREAT BIOTEC[…]., LTD., priority 2018, dated 2022).

system: anti-PTX monoclonal antibody; test: PTX analog interference test (cross reaction rate) on the time-resolved fluorescent immunochromatographic test strip; type: binding, mouse; details: test concentration 100 ng/mL
Method: 20 ul of sample is accurately pipetted into 180 ul of sample diluent and mixed fully.
80 uL of sample solution to be tested is accurately pipetted into a test strip loading well with a micropipette, and reaction is carried out at room temperature (20-25° C.) for 15 min. The test strip is inserted into a load carrier of a fluorescence detector, an item to be tested is selected by touching a display screen, a “Detection Start” button is pressed, the fluorescence detector automatically scans the test strip, and a test result is read through the display screen of an instrument or printed.
Quantitative detection: after the test is completed, the instrument obtains the ratio of the time-resolved fluorescent intensity of the detection area on the test strip to the time-resolved fluorescent intensity of the quality control area. Based on a relationship curve of the ratio of the time-resolved fluorescent intensity of the detection area on the pre-built test strip to the time-resolved fluorescent intensity of the quality control area and the concentration of PTX drugs, the content of PTX drug in the sample to be tested is obtained, and finally, the content of the PTX drug in the sample to be tested is obtained by conversion.
The cross reaction rate is measured according to the method of Embodiment 2.
Several analogs of PTX are selected for interference testing.

How did the Cross reaction rate turn out when `CC(=O)O[C@H]1C(=O)[C@@]2(C)[C@H]([C@H](OC(=O)c3ccccc3)[C@]3(O)C[C@H](OC(=O)[C@H](O)[C@@H](NC(=O)c4ccccc4)c4ccccc4)C(C)=C1C3(C)C)[C@]1(OC(C)=O)CO[C@@H]1C[C@@H]2O` [Paclitaxel] was run?
Its Cross reaction rate is 100%.

same assay, conditions: test concentration 1,000 ng/mL

With `CC(=O)OC1CC2(OC(C)=O)C(OC(C)=O)C3C4(CO4)C(O)CC(OC(C)=O)C3(C)C(OC(C)=O)C(OC(C)=O)C(=C1C)C2(C)C` (stereo not drawn) [1-Acetoxyl-5-deacetyl-baccatin I] as the molecule, how does the Cross reaction rate read?
Its Cross reaction rate is <0.01%.

Which Cross reaction rate does the source give for `CC(=O)O[C@H]1C[C@@]2(O)[C@@H](OC(C)=O)[C@@H]3[C@@]4(CO4)[C@@H](OC(C)=O)C[C@H](OC(C)=O)[C@@]3(C)[C@@H](OC(C)=O)[C@H](OC(C)=O)C(=C1C)C2(C)C` [1-Hydroxybaccatin I] here?
Its Cross reaction rate is <0.01%.

Which Cross reaction rate does the source give for `CC(=O)O[C@H]1C(=O)[C@]2(C)[C@@H](O[C@@H]3OC[C@@H](O)[C@H](O)[C@H]3O)C[C@H]3OC[C@@]3(OC(C)=O)[C@H]2[C@H](OC(=O)c2ccccc2)[C@]2(O)C[C@H](OC(=O)[C@H](O)[C@@H](NC(=O)c3ccccc3)c3ccccc3)C(C)=C1C2(C)C` [7-Xylosyltaxol] here?
Its Cross reaction rate is <1%.

With `CC(=O)O[C@@]12CO[C@@H]1C[C@H](O)[C@@]1(C)C(=O)[C@H](O)C3=C(C)[C@@H](O)C[C@@](O)([C@@H](OC(=O)c4ccccc4)[C@H]21)C3(C)C` [10-Deacetyl-baccatin III] as the molecule, how does the Cross reaction rate read?
Its Cross reaction rate is <0.01%.

With `CC(=O)OC1CC2(O)C(OC(=O)c3ccccc3)C3C4(OC(C)=O)COC4CC(O)C3(C)C(O)C(OC(C)=O)C(=C1C)C2(C)C` (stereo not drawn) [13-Acetyl-9-dihydrobaccatin III] as the molecule, how does the Cross reaction rate read?
Its Cross reaction rate is <0.01%.

Which Cross reaction rate does the source give for `CC(=O)O[C@H]1C(=O)[C@@]2(C)[C@H]([C@H](OC(=O)c3ccccc3)[C@]3(O)C[C@H](O)C(C)=C1C3(C)C)[C@]1(OC(C)=O)CO[C@@H]1C[C@@H]2O` [Baccatin III] here?
Its Cross reaction rate is <0.01%.

For `C/C=C(\C)C(=O)N[C@@H](c1ccccc1)[C@@H](O)C(=O)O[C@H]1C[C@@]2(O)[C@@H](OC(=O)c3ccccc3)[C@@H]3[C@]4(OC(C)=O)CO[C@@H]4C[C@H](O)[C@@]3(C)C(=O)[C@H](OC(C)=O)C(=C1C)C2(C)C` [Cephalomannine], which Cross reaction rate is on record?
Its Cross reaction rate is <0.04%.

`CC(=O)O[C@@]12CO[C@@H]1C[C@H](O)[C@@]1(C)C(=O)[C@H](O)C3=C(C)[C@@H](OC(=O)[C@H](O)[C@@H](NC(=O)OC(C)(C)C)c4ccccc4)C[C@@](O)([C@@H](OC(=O)c4ccccc4)[C@H]21)C3(C)C` [Docetaxel] was tested. Which Cross reaction rate did it give?
The Cross reaction rate was <1%.
